The source of these data is PubChem BioAssay (NCI).

Each structure is given as a SMILES string.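 Step 1: Grow cells in 96-well plates. Step 2: Expose to compound for 48 hours at 5 concentrations. Step 3: Interpolate endpoints linearly; if unreached, use highest concentration. GI50 is the concentration that inhibits growth by half. At the TGI there is no net growth.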 Some results are limits rather than exact numbers.

Holding throughout (experiment): NCI tumour cell line growth inhibition, 48 h
Experiment [1] relates to 786-0 renal.
Experiment [2] deals with CAKI-1 renal.
The test system of experiment [3] is HOP-92 NSCLC.
The subject of experiment [4] is HS 578T breast.
Experiment [5] concerns M14 melanoma.
Experiment [6] concerns OVCAR-8 ovarian.
For experiment [7], the system named is SF-268 CNS.
Experiment [8] has as its system SK-MEL-2 melanoma.

As for `CCN1CCC(O)(c2ccc(Oc3ccc(F)cc3)cc2)C(C(=O)c2ccc(Oc3ccc(F)cc3)cc2)C1` (configuration not stated), the TGI in experiment [1] was 26.4 µM; in experiment [2], 25.7 µM; in experiment [3], 24.4 µM; in experiment [4], 38.4 µM; in experiment [5], 30.9 µM; in experiment [6] it was 30.7 µM. Also, the TGI in experiment [7] was 34.9 µM; in experiment [8] it was 31.6 µM.

As to `COc1cc2c(cc1OC)C(=O)N(c1ccc(O)cc1)C2=O`, the TGI in experiment [1], in experiment [2], in experiment [3], in experiment [4], in experiment [5] and in experiment [6] was over 100 µM throughout. For the same molecule, the TGI in experiment [7] and in experiment [8] was over 100 µM throughout.

For `CC(NC(=O)NC(C)(C)C)NC(=O)C(N)CC(=O)O` (configuration not stated), the TGI in experiment [1], in experiment [2], in experiment [3], in experiment [4], in experiment [5] and in experiment [6] was over 100 µM throughout. Also, the TGI in experiment [7] and in experiment [8] was over 100 µM each time.

With `CS(=O)(=O)c1nc(-c2cc3c(c(S(C)(=O)=O)n2)CCCC3)cc2c1CCCCC2`, the TGI was over 100 µM in experiment [1]; over 100 µM in experiment [2]; over 100 µM in experiment [5]; over 100 µM in experiment [6]; 85.1 µM in experiment [7]; over 100 µM in experiment [8].

As for `CCOC(=O)c1c(N=P(c2ccccc2)(c2ccccc2)c2ccccc2)nnc(-c2ccccc2)c1-c1ccccc1`, the TGI in experiment [1], in experiment [3], in experiment [5], in experiment [6], in experiment [7] and in experiment [8] was over 100 µM throughout.

Regarding `CO/N=C(/C)c1cccc(Nc2nc3ccccc3c3[nH]c4ccccc4c23)c1`, the TGI came to 21.5 µM in experiment [1]; 24.2 µM in experiment [2]; 35.8 µM in experiment [4]; 21.1 µM in experiment [5]; 20.9 µM in experiment [6]; 25.7 µM in experiment [7]. Further, the TGI in experiment [8] amounted to 23.5 µM.

With `CC1(C)OC2[C@@H](CO[C@@]3([C@@H](O)CCO)OC(C)(C)O[C@@H]23)O1` (some centres not stated), the TGI in experiment [1], in experiment [2], in experiment [3], in experiment [5], in experiment [6] and in experiment [7] was over 100 µM in each case. The TGI in experiment [8] is over 100 µM.

Turning to `Cc1c2c3ccccc3nc-2n(C)c2ccccc12`, the TGI is 13 µM in experiment [1]; 13.1 µM in experiment [3]; 20 µM in experiment [4]; 20.5 µM in experiment [5]; 15.1 µM in experiment [6]; 19.1 µM in experiment [7].

Consider `O=CNNC(=O)Nc1cccc2ccccc12`, for which the TGI in experiment [1], in experiment [4], in experiment [5], in experiment [6] and in experiment [7] was over 100 µM each time.

On to `CCOC(=O)c1[nH]c(Br)c(-c2ccc(OC)c(OC)c2)c1Br`, for which the TGI in experiment [1] was 11.7 µM; in experiment [5], 16 µM; in experiment [6], 36.8 µM; in experiment [7], 35.7 µM; in experiment [8], 20.2 µM. Also, the results for the GI50 in experiment [6], in experiment [7] and in experiment [8] were 0.0511 µM, 1.03 µM and 0.0152 µM, respectively.

Turning to `C=C1C(=O)O[C@H]2C[C@@]3(COC(C)=O)C=COC=C(COC(=O)C(C)C)C3CC12` (some centres not stated), the TGI in experiment [1], in experiment [2], in experiment [4] and in experiment [6] was over 100 µM throughout.

Turning to `O=C(O)CCC(=O)c1ccc2c(c1)C(C(=O)O)CC2` (configuration not stated), the TGI in experiment [1], in experiment [3], in experiment [4], in experiment [5], in experiment [6] and in experiment [7] was over 100 µM each time. Moreover, the TGI in experiment [8] is over 100 µM.

With `O=C(OC1C2OC(=O)c3cc(O)c(O)c(O)c3Oc3cc4c(c(O)c3O)-c3c(cc(O)c(O)c3O)C(=O)OCC3OC(O)C(OC(=O)c5cc(O)c(O)c(O)c5Oc5cc6c(c(O)c5O)-c5c(cc(O)c(O)c5O)C(=O)OC1C(COC6=O)OC2O)C(OC(=O)c1cc(O)c(O)c(O)c1)C3OC4=O)c1cc(O)c(O)c(O)c1` (configuration not stated), the TGI in experiment [1] is 47.1 µM; in experiment [2] it was over 100 µM; in experiment [3] it was 58.5 µM; in experiment [4], 63.8 µM; in experiment [5], over 100 µM; in experiment [6], 81.3 µM. The molecule also had a TGI in experiment [7] of over 100 µM.

With `CN(C(=O)Cc1ccccc1)n1cnn(CC(=O)OC(C)(C)C)c1=S`, the TGI in experiment [1], in experiment [2], in experiment [3], in experiment [4], in experiment [5] and in experiment [6] was over 10 µM in each case. The TGI in experiment [7] was over 10 µM.

Consider `O=C(NCCN1CCOCC1)c1cn2c(ccc3sc4ccccc4c(=O)c32)n1`, for which the TGI is 40 µM in experiment [1]; over 100 µM in experiment [2]; over 100 µM in experiment [3]; 47.3 µM in experiment [4]; over 100 µM in experiment [6]; over 100 µM in experiment [7].

Turning to `COc1cc(C(C)O)c(S(=O)(=O)CC(C)O)nn1` (configuration not stated), the TGI in experiment [2], in experiment [3], in experiment [4], in experiment [5] and in experiment [6] was over 100 µM in each case.

For the molecule `CCOC(=O)c1[nH]c(-c2[nH]c(-c3[nH]c(-c4[nH]c(C(=O)OCC)c(C)c4C(=O)OCC)c(C(=O)OCC)c3C)c(C)c2C(=O)OCC)c(C(=O)OCC)c1C`, the TGI in experiment [1], in experiment [2], in experiment [4], in experiment [5], in experiment [6] and in experiment [7] was over 100 µM each time. Besides, the TGI in experiment [8] is over 100 µM.

Take `OC1(c2ccc(-c3ccccc3)cc2)c2ccccc2C2=NCCN21` (configuration not stated): the TGI in experiment [1] is 33.1 µM; in experiment [2] it was over 100 µM; in experiment [3], over 100 µM; in experiment [4], 75.4 µM; in experiment [7], over 100 µM; in experiment [8] it was 24.9 µM.

Take `COc1ccc(-n2c(N)c(C#N)[nH]c2=O)cc1`: the TGI in experiment [1], in experiment [3], in experiment [4], in experiment [5], in experiment [6] and in experiment [7] was over 10 µM in each case. Moreover, the TGI in experiment [8] is over 10 µM.

Take `CCP(=O)(CC)C(Cl)Cl`: the TGI in experiment [2], in experiment [3], in experiment [4], in experiment [5], in experiment [6] and in experiment [8] was over 100 µM in each case.

On to `O=C1C(Br)=C(c2ccccc2)O/C1=C/C(=O)c1ccc(Br)cc1`, for which the TGI in experiment [1] is 47 µM; in experiment [2] it was 35 µM; in experiment [3], over 100 µM; in experiment [4] it was over 100 µM; in experiment [5], over 100 µM; in experiment [6] it was 81.1 µM. Moreover, the TGI in experiment [7] was over 100 µM.

For the molecule `CN(C)CCNC(=O)c1ccc(NCCCN(C)CCCNc2ccc(C(=O)NCCN(C)C)c3[nH]c4ccccc4c(=O)c23)c2c(=O)c3ccccc3[nH]c12`, the TGI in experiment [1] was 0.312 µM; in experiment [2] it was 2.59 µM; in experiment [3] it was 3.82 µM; in experiment [5] it was 1.46 µM; in experiment [6], 1.14 µM; in experiment [7], 0.271 µM. In addition, in experiment [8], the TGI came to 0.262 µM.

`O=C(/C=C/c1ccccc1)CSc1ncn[nH]1`: the TGI in experiment [1], in experiment [2], in experiment [5], in experiment [6], in experiment [7] and in experiment [8] was over 100 µM each time.

Turning to `COc1ccc(-n2[nH]nc(C(N)=O)c2=O)cc1`, the TGI in experiment [1], in experiment [2], in experiment [4], in experiment [5], in experiment [6] and in experiment [7] was over 100 µM each time. This molecule also gave a TGI in experiment [8] of over 100 µM.

With `COC(=O)CCC1=C(CC(=O)OC)C(C)(OC)N=C1NC(=O)OCc1ccccc1` (configuration not stated), the TGI in experiment [1], in experiment [2], in experiment [5], in experiment [6], in experiment [7] and in experiment [8] was over 100 µM each time.

On to `Cc1ccc(SC2C(=O)C3CC(OCc4ccccc4)C2(C)C3(C)C)cc1` (configuration not stated), for which the TGI in experiment [1], in experiment [3], in experiment [4], in experiment [5], in experiment [6] and in experiment [7] was over 100 µM in each case. Further, in experiment [8], the TGI was over 100 µM.

Regarding `O=C1CC(c2ccccc2)C2(C(=O)NC(=S)NC2=O)C(c2ccccc2)C1` (configuration not stated), the TGI in experiment [1], in experiment [2], in experiment [3], in experiment [5], in experiment [6] and in experiment [7] was over 75 µM in each case. Besides, the TGI in experiment [8] is over 75 µM.

For the molecule `Cc1cnc2sn(-c3ccc([N+](=O)[O-])cc3)c(=O)c2c1`, the TGI in experiment [1], in experiment [3], in experiment [4], in experiment [5], in experiment [6] and in experiment [7] was over 100 µM each time. The TGI in experiment [8] was over 100 µM.

As to `CN1CN(c2ccccc2)C2(CCN(CC(C)(c3ccc(F)cc3)C3OCCCO3)CC2)C1=O` (configuration not stated), the TGI in experiment [1] stood at 43.1 µM; in experiment [2] it was 65.3 µM; in experiment [5], 34.5 µM; in experiment [6] it was 38.5 µM; in experiment [7] it was 44.9 µM.

For the molecule `CCCCCCCCCCCCCCCCNC(=O)C(=O)/C=C(\O)c1ccc(C)cc1`, the TGI in experiment [1], in experiment [2], in experiment [4], in experiment [5], in experiment [6] and in experiment [7] was over 10 µM throughout. In addition, the TGI in experiment [8] was over 10 µM.

On to `O=C1c2cc(Cl)ccc2NC(=NC2CCCC2)C2CSCN12` (configuration not stated), for which the TGI in experiment [1], in experiment [2], in experiment [4], in experiment [5], in experiment [6] and in experiment [7] was over 100 µM in each case. Further, the TGI in experiment [8] is over 100 µM.

On to `CC(=O)OC12C3C4C1C1C2C3C41OC(C)=O` (configuration not stated), for which the TGI in experiment [1], in experiment [2], in experiment [3], in experiment [5], in experiment [6] and in experiment [7] was over 100 µM in each case. In addition, in experiment [8], the TGI was over 100 µM.

Consider `CC(C)(C)OC(=O)N(CCCCNC(=O)OCc1ccccc1)CCCNC(=O)OCc1ccccc1`, for which the TGI in experiment [1] was over 100 µM; in experiment [3], 99.1 µM; in experiment [4], over 100 µM; in experiment [5], over 100 µM; in experiment [6], over 100 µM; in experiment [7] it was over 100 µM. The molecule further displayed a TGI in experiment [8] of over 100 µM.

Take `CCOC(=O)c1nnsc1N/N=C\c1ccc([N+](=O)[O-])cc1`: the TGI in experiment [1], in experiment [4], in experiment [5], in experiment [6], in experiment [7] and in experiment [8] was over 100 µM throughout.

`c1ccc(C(NCC2CCO2)(c2ccccc2)c2ccccc2)cc1` (configuration not stated): the TGI in experiment [1] came to 41.6 µM; in experiment [2], 55.2 µM; in experiment [3], 32.8 µM; in experiment [5] it was 32.1 µM; in experiment [6], 26.6 µM; in experiment [8] it was 42.5 µM.

On to `c1cc2c(s1)-c1sccc1C21OCCO1`, for which the TGI in experiment [1], in experiment [2], in experiment [5], in experiment [6], in experiment [7] and in experiment [8] was over 100 µM throughout.

In the case of `Cc1nc(CC#N)n[nH]1`, the TGI in experiment [1], in experiment [3], in experiment [5], in experiment [6], in experiment [7] and in experiment [8] was over 100 µM throughout.
